Paper PMC12783763 (Nature Communications, 2025)

Molecular target: NPM1 (nucleophosmin 1) (Homo sapiens, UniProt P06748)
Assay: surface plasmon resonance
Assay type: binding

NPM1 (nucleophosmin 1), sequence (P06748 whole entry): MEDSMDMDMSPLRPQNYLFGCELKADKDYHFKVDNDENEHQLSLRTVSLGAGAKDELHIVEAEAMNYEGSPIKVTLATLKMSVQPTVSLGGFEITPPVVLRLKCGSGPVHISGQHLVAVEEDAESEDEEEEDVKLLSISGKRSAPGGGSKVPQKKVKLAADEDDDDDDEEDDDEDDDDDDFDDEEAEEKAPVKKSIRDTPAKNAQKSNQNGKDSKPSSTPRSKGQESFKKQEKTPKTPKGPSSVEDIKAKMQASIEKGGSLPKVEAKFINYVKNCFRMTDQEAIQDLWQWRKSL

Kd: 20.9 µM
SMILES: C[C@H](CCC(=O)NCCS(=O)(=O)O)[C@H]1CC[C@H]2[C@@H]3[C@H](O)C[C@@H]4C[C@H](O)CC[C@]4(C)[C@H]3CC[C@]12C [taurochenodeoxycholic acid]
